≈ marks a conversion by molar mass, not a printed value.
Key:
E. cloacae = type: cell-based, Enterobacter cloacae; details: 8 passages, concentration doubled each day
Description: ESKAPE pathogens were grown overnight in liquid media at 37° C. These cultures were then diluted 1:100 in fresh media, and seeded into a 96-well plate. Lead bis-cyclic guanidines or control agents were added to respective wells at half MIC concentrations. […] These were then grown overnight, and the procedure repeated for a total of eight days.

Pseudomonas aeruginosa [1] = assay: MIC micro broth dilution assay; type: cell-based; details: for MIC: Pseudomonas aeruginosa; for concentration inhibiting 90% of isolates: panel of P. aeruginosa clinical isolates
Description: For this study we used a representative panel of multi-drug resistant clinical ESKAPE pathogen isolates (Supplemental Table S6).^42 43 3a, 44 45 Gram-positive organisms were grown in tryptic soy broth media (TSB), whilst Gram-negative organisms were grown in lysogeny Broth (LB), as described by us previously. ^43 MIC and MBC determination assays.
Broth cultures of ESKAPE strains were grown overnight before being diluted 1 in 1,000 in fresh media. Sterile 96-well plates were loaded with culture and compounds (in DMF) were added at decreasing concentrations to equal a total volume of 200 μl per well. Care was taken to not add more than 2.0% DMF to any well. Plates were then incubated at 37° C., and MICs determined after 24 hours by visual inspection for a lack of turbidity in wells. All assays were performed in triplicate with identical results obtained. For both the scaffold ranking and positional scanning samples, relative broad-spectrum activity was determined via stacked scores: […]

[2] = system: Staphylococcus aureus (USA300 strain FPR3757); assay: Murine model of lethal peritonitis; type: in vivo, mice; details: 2× MIC, I.M., 1 h post-infection, six mice per group
Description: Using MRSA as a representative ESKAPE organism, we infected mice with 1×10^8 bacterial cells in 5% mucin via intraperitoneal injection. At 1 h post-infection, mice were then I.V. injected with either vancomycin (positive control), or I.M. with our front runner compounds.
Six mice per group were injected with 1×10^8 CFU ml^−1 of Staphylococcus aureus (USA300 strain FPR3757) in PBS containing 5% mucin. […] Mice were monitored twice daily for five days to assess mortality. The clinical endpoint of this study was when the mice reached a pre-moribund state. Characteristics of pre-moribund state include: hunched posture, rapid, shallow and/or labored breathing, ruffled fur, lethargy, failure to respond to stimuli, soiled anogenital area, paralysis, paresis, head tilt, circling, vocalizations, non-purposeful movements and/or were unable to eat or drink. Those mice reaching this state prior to the completion of the 5 day infection period were euthanized. The number of mice surviving between control and treatment groups was compared and analyzed for statistical significance using a log rank test.

S. aureus = assay: Resistance serial passage assay; type: cell-based, Staphylococcus aureus; details: 8 passages, concentration doubled each day
Description: (§1) ESKAPE pathogens were grown overnight in liquid media at 37° C. These cultures were then diluted 1:100 in fresh media, and seeded into a 96-well plate. Lead bis-cyclic guanidines or control agents were added to respective wells at half MIC concentrations. Plates were then incubated for 24 hours at 37° C., with bacteria removed from these cultures on the following day, to inoculate fresh media (1:100 dilution) containing compounds at a 2-fold higher concentrations. These were then grown overnight, and the procedure repeated for a total of eight days. […] Each experiment was performed in triplicate, yielding identical results.

Enterobacter cloacae [3] = assay: MIC micro broth dilution assay; type: cell-based; details: for stacked score activity, 100/MIC, E: E. cloacae; for MIC: Enterobacter cloacae
Procedure, shortened: (§2)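 Strains were multidrug-resistant clinical isolates grown in LB (Gram-negative) or TSB (Gram-positive), diluted 1:1,000 before compound addition.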

Enterococcus faecium [4] = assay: MIC micro broth dilution assay; type: cell-based; details: for stacked score activity, 100/MIC, E: E. faecium; for MIC: Enterococcus faecium
Procedure, shortened: as §2

Klebsiella pneumoniae = assay: Minimal bactericidal concentration (MBC) assay; type: cell-based; details: Klebsiella pneumoniae, purified compound; read-out: MBC90
Description: (§3) Briefly, compound was washed by centrifugation and serial dilution, before plating on Tryptic Soy Agar (TSA). Plates were incubated for 24 hours at 37° C. and cell viability assessed by determining CFU/ml at each concentration, for every compound. Percent recovery was then determined compared to CFU/ml from no drug controls. All concentrations and controls were tested using three biological replicates, alongside two technical replicates for each data point.

Staphylococcus aureus = assay: Minimal bactericidal concentration (MBC) assay; type: cell-based; details: Staphylococcus aureus, purified compound; read-out: MBC90
Description: as §3

Acinetobacter baumannii = assay: Minimal bactericidal concentration (MBC) assay; type: cell-based; details: Acinetobacter baumannii, purified compound; read-out: MBC90
Description: as §3

Pseudomonas aeruginosa [5] = assay: Minimal bactericidal concentration (MBC) assay; type: cell-based; details: Pseudomonas aeruginosa; purified compound; read-out: MBC90
Description: as §3

Enterobacter cloacae [6] = assay: Minimal bactericidal concentration (MBC) assay; type: cell-based; details: Enterobacter cloacae; purified compound; read-out: MBC90
Description: as §3

Enterococcus faecium [7] = assay: Minimal bactericidal concentration (MBC) assay; type: cell-based; details: Enterococcus faecium, purified compound; read-out: MBC90
Description: as §3

K. pneumoniae = assay: Resistance serial passage assay; type: cell-based, Klebsiella pneumoniae; details: 8 passages, concentration doubled each day
Description: as §1

[8] = panel of E. cloacae clinical isolates

CCCCCCCN1C(=N)N(CCCC[C@H]2CNC(=N)N2CCCCC2CCCCC2)C[C@@H]1CC1CCCCC1 [Compound 16]
increase in MIC after serial passage (E. cloacae): 8 fold | MIC (Pseudomonas aeruginosa [1]; P. aeruginosa isolate 1414): 3 µM (≈ 1.67 µg/mL) | MIC (Pseudomonas aeruginosa [1]; P. aeruginosa isolate 1415): 3 µM (≈ 1.67 µg/mL) | MIC (Pseudomonas aeruginosa [1]; P. aeruginosa isolate 1416): 2 µM (≈ 1.11 µg/mL) | MIC (Pseudomonas aeruginosa [1]; P. aeruginosa isolate 1417): 3 µM (≈ 1.67 µg/mL) | MIC (Pseudomonas aeruginosa [1]; P. aeruginosa isolate 1418): 7 µM (≈ 3.9 µg/mL) | MIC (Pseudomonas aeruginosa [1]; P. aeruginosa isolate 1419): 3 µM (≈ 1.67 µg/mL) | MIC (Pseudomonas aeruginosa [1]; P. aeruginosa isolate 1420): 3 µM (≈ 1.67 µg/mL) | MIC (Pseudomonas aeruginosa [1]; P. aeruginosa isolate 1421): 3 µM (≈ 1.67 µg/mL) | MIC (Pseudomonas aeruginosa [1]; P. aeruginosa isolate 1422): 3 µM (≈ 1.67 µg/mL) | MIC (Pseudomonas aeruginosa [1]; P. aeruginosa isolate 1423): 2 µM (≈ 1.11 µg/mL) | MIC (Pseudomonas aeruginosa [1]; purified compound, Table 1): 1.62 µM (≈ 0.902 µg/mL) | concentration inhibiting 90% of isolates (Pseudomonas aeruginosa [1]): 5 µM | survival of infected mice over 5 day infection period [2]: only a single mouse succumbing to infection after the first day | increase in MIC after serial passage (S. aureus): 16 fold | stacked score activity, 100/MIC, E (Enterobacter cloacae [3]): 20 | MIC (Enterobacter cloacae [3]; E. cloacae isolate 1404): 2 µM (≈ 1.11 µg/mL) | MIC (Enterobacter cloacae [3]; E. cloacae isolate 1405): 2 µM (≈ 1.11 µg/mL) | MIC (Enterobacter cloacae [3]; E. cloacae isolate 1430): 2 µM (≈ 1.11 µg/mL) | MIC (Enterobacter cloacae [3]; E. cloacae isolate 1431): 2 µM (≈ 1.11 µg/mL) | MIC (Enterobacter cloacae [3]; E. cloacae isolate 1445): 2 µM (≈ 1.11 µg/mL) | MIC (Enterobacter cloacae [3]; E. cloacae isolate 1446): 5 µM (≈ 2.78 µg/mL) | MIC (Enterobacter cloacae [3]; E. cloacae isolate 1447): 2 µM (≈ 1.11 µg/mL) | MIC (Enterobacter cloacae [3]; E. cloacae isolate 1448): 2 µM (≈ 1.11 µg/mL) | MIC (Enterobacter cloacae [3]; E. cloacae isolate 1454): 2 µM (≈ 1.11 µg/mL) | MIC (Enterobacter cloacae [3]; E. cloacae isolate 1455): 2 µM (≈ 1.11 µg/mL) | MIC (Enterobacter cloacae [3]; purified compound, Table 1): 1.62 µM (≈ 0.902 µg/mL) | concentration inhibiting 90% of isolates (Enterobacter cloacae [3]; [8]): 2 µM | stacked score activity, 100/MIC, E (Enterococcus faecium [4]): 33 | MIC (Enterococcus faecium [4]; E. faecium isolate 1406): 2 µM (≈ 1.11 µg/mL) | MIC (Enterococcus faecium [4]; E. faecium isolate 1407): 2 µM (≈ 1.11 µg/mL) | MIC (Enterococcus faecium [4]; E. faecium isolate 1432): 2 µM (≈ 1.11 µg/mL) | MIC (Enterococcus faecium [4]; E. faecium isolate 1438): 2 µM (≈ 1.11 µg/mL) | MIC (Enterococcus faecium [4]; E. faecium isolate 1439): 2 µM (≈ 1.11 µg/mL) | MIC (Enterococcus faecium [4]; E. faecium isolate 1443): 2 µM (≈ 1.11 µg/mL) | MIC (Enterococcus faecium [4]; E. faecium isolate 1444): 2 µM (≈ 1.11 µg/mL) | MIC (Enterococcus faecium [4]; E. faecium isolate 1449): 2 µM (≈ 1.11 µg/mL) | MIC (Enterococcus faecium [4]; E. faecium isolate 1450): 2 µM (≈ 1.11 µg/mL) | MIC (Enterococcus faecium [4]; E. faecium isolate 1451): 2 µM (≈ 1.11 µg/mL) | MIC (Enterococcus faecium [4]; purified compound, Table 1): 1.62 µM (≈ 0.902 µg/mL) | MBC (Klebsiella pneumoniae): 4.45 µM (≈ 2.48 µg/mL) | MBC (Staphylococcus aureus): 3.88 µM (≈ 2.16 µg/mL) | MBC (Acinetobacter baumannii): 2.77 µM (≈ 1.54 µg/mL) | MBC (Pseudomonas aeruginosa [5]): 3.99 µM (≈ 2.22 µg/mL) | MBC (Enterobacter cloacae [6]): 9.55 µM (≈ 5.32 µg/mL) | MBC (Enterococcus faecium [7]): 2.87 µM (≈ 1.6 µg/mL) | increase in MIC after serial passage (K. pneumoniae): 8 fold

CCCC[C@H]1CN(CCCC[C@H]2CNC(=N)N2CCc2cccc(C(F)(F)F)c2)C(=N)N1CCCCC1CCCCC1 [Compound 2, (S)-4-butyl-3-(4-cyclohexylbutyl)-1-(4-((S)-2-imino-3-(3-(trifluoromethyl)phenethyl)imidazolidin-4-yl)butyl)imidazolidin-2-imine]
increase in MIC after serial passage (E. cloacae): 8 fold | MIC (Pseudomonas aeruginosa [1]; P. aeruginosa isolate 1414): 3 µM (≈ 1.77 µg/mL) | MIC (Pseudomonas aeruginosa [1]; P. aeruginosa isolate 1415): 3 µM (≈ 1.77 µg/mL) | MIC (Pseudomonas aeruginosa [1]; P. aeruginosa isolate 1416): 2 µM (≈ 1.18 µg/mL) | MIC (Pseudomonas aeruginosa [1]; P. aeruginosa isolate 1417): 3 µM (≈ 1.77 µg/mL) | MIC (Pseudomonas aeruginosa [1]; P. aeruginosa isolate 1418): 7 µM (≈ 4.14 µg/mL) | MIC (Pseudomonas aeruginosa [1]; P. aeruginosa isolate 1419): 3 µM (≈ 1.77 µg/mL) | MIC (Pseudomonas aeruginosa [1]; P. aeruginosa isolate 1420): 3 µM (≈ 1.77 µg/mL) | MIC (Pseudomonas aeruginosa [1]; P. aeruginosa isolate 1421): 3 µM (≈ 1.77 µg/mL) | MIC (Pseudomonas aeruginosa [1]; P. aeruginosa isolate 1422): 3 µM (≈ 1.77 µg/mL) | MIC (Pseudomonas aeruginosa [1]; P. aeruginosa isolate 1423): 2 µM (≈ 1.18 µg/mL) | MIC (Pseudomonas aeruginosa [1]; purified compound, Table 1): 1.52 µM (≈ 0.898 µg/mL) | concentration inhibiting 90% of isolates (Pseudomonas aeruginosa [1]): 5 µM | survival of infected mice over 5 day infection period [2]: only a single mouse succumbing to infection after the first day | increase in MIC after serial passage (S. aureus): two-fold | stacked score activity, 100/MIC, E (Enterobacter cloacae [3]): 20 | MIC (Enterobacter cloacae [3]; E. cloacae isolate 1404): 2 µM (≈ 1.18 µg/mL) | MIC (Enterobacter cloacae [3]; E. cloacae isolate 1405): 2 µM (≈ 1.18 µg/mL) | MIC (Enterobacter cloacae [3]; E. cloacae isolate 1430): 2 µM (≈ 1.18 µg/mL) | MIC (Enterobacter cloacae [3]; E. cloacae isolate 1431): 2 µM (≈ 1.18 µg/mL) | MIC (Enterobacter cloacae [3]; E. cloacae isolate 1445): 2 µM (≈ 1.18 µg/mL) | MIC (Enterobacter cloacae [3]; E. cloacae isolate 1446): 7 µM (≈ 4.14 µg/mL) | MIC (Enterobacter cloacae [3]; E. cloacae isolate 1447): 3 µM (≈ 1.77 µg/mL) | MIC (Enterobacter cloacae [3]; E. cloacae isolate 1448): 3 µM (≈ 1.77 µg/mL) | MIC (Enterobacter cloacae [3]; E. cloacae isolate 1454): 2 µM (≈ 1.18 µg/mL) | MIC (Enterobacter cloacae [3]; E. cloacae isolate 1455): 2 µM (≈ 1.18 µg/mL) | MIC (Enterobacter cloacae [3]; purified compound, Table 1): 1.52 µM (≈ 0.898 µg/mL) | concentration inhibiting 70% of strains (Enterobacter cloacae [3]; [8]): 2 µM | concentration inhibiting 90% of isolates (Enterobacter cloacae [3]; [8]): 5 µM | stacked score activity, 100/MIC, E (Enterococcus faecium [4]): 50 | MIC (Enterococcus faecium [4]; E. faecium isolate 1406): 2 µM (≈ 1.18 µg/mL) | MIC (Enterococcus faecium [4]; E. faecium isolate 1407): 2 µM (≈ 1.18 µg/mL) | MIC (Enterococcus faecium [4]; E. faecium isolate 1432): 2 µM (≈ 1.18 µg/mL) | MIC (Enterococcus faecium [4]; E. faecium isolate 1438): 2 µM (≈ 1.18 µg/mL) | MIC (Enterococcus faecium [4]; E. faecium isolate 1439): 2 µM (≈ 1.18 µg/mL) | MIC (Enterococcus faecium [4]; E. faecium isolate 1443): 2 µM (≈ 1.18 µg/mL) | MIC (Enterococcus faecium [4]; E. faecium isolate 1444): 2 µM (≈ 1.18 µg/mL) | MIC (Enterococcus faecium [4]; E. faecium isolate 1449): 2 µM (≈ 1.18 µg/mL) | MIC (Enterococcus faecium [4]; E. faecium isolate 1450): 2 µM (≈ 1.18 µg/mL) | MIC (Enterococcus faecium [4]; E. faecium isolate 1451): 2 µM (≈ 1.18 µg/mL) | MIC (Enterococcus faecium [4]; purified compound, Table 1): 1.52 µM (≈ 0.898 µg/mL) | MBC (Klebsiella pneumoniae): 3.98 µM (≈ 2.35 µg/mL) | MBC (Staphylococcus aureus): 2.03 µM (≈ 1.2 µg/mL) | MBC (Acinetobacter baumannii): 2.83 µM (≈ 1.67 µg/mL) | MBC (Pseudomonas aeruginosa [5]): 2.32 µM (≈ 1.37 µg/mL) | MBC (Enterobacter cloacae [6]): 4.15 µM (≈ 2.45 µg/mL) | MBC (Enterococcus faecium [7]): 1.66 µM (≈ 0.981 µg/mL) | increase in MIC after serial passage (K. pneumoniae): 8 fold
